# Measured values: patent publication US20230019236A1, “PROTEIN TYROSINE PHOSPHATASE INHIBITORS AND METHODS OF USE THEREOF” (Calico Life Sciences LLC, priority 2019, published 2023)
# Target: T1, His tagged full-length PTP1B protein (Homo sapiens, UniProt P18031)
# T1 construct: made in house
# T1 sequence (P18031 with tags, fused parts or gaps): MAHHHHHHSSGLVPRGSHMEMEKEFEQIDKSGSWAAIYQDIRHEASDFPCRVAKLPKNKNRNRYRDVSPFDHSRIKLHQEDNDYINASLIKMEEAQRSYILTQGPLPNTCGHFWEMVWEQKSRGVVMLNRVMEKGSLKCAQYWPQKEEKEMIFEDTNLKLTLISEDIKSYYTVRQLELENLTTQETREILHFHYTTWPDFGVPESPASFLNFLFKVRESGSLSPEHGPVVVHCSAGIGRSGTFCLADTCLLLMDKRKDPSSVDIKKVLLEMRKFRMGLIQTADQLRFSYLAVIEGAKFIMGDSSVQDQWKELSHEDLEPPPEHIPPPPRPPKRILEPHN
# Assay: Mobility Shift Assay (MSA) used to determine potency of PTP1B inhibitors
# Format: biochemical
# Conditions: Table 2
# Protocol: The enzymatic assay used to determine activity is a mobility shift assay using a LabChip EZ Reader by Caliper Life Sciences. The enzymatic reaction was carried out in assay buffer (50 mM HEPES pH 7.5, 1 mM EGTA, 10 mM EDTA, 0.01% Tween® 20, and 2 mM DTT). […] The enzyme (at 0.5 nM) was incubated with compound for 10 minutes at room temperature. […] The % inhibition was then used to calculate the IC50 values.
row,IC50 [nM],SMILES
1,1 to 10,"O=C1CN(c2c(O)cc3ccc(OCc4cn[nH]c4)cc3c2F)S(=O)(=O)N1 [Compound 133, 5-{1-fluoro-3-hydroxy-7-[(1H-pyrazol-4-yl)methoxy]naphthalen-2-yl}-1λ6,2,5-thiadiazolidine-1,1,3-trione]"
2,< 1,"O=C1CN(c2c(O)cc3ccc(C4=CCN(C(=O)C5CC5)C4)cc3c2F)S(=O)(=O)N1 [Compound 237, 5-{7-[1-(cyclopropanecarbonyl)-2,5-dihydro-1H-pyrrol-3-yl]-1-fluoro-3-hydroxynaphthalen-2-yl}-1λ^6,2,5-thiadiazolidine-1,1,3-trione]"
3,< 1,"CCCCS(=O)(=O)N1CC=C(c2ccc3cc(O)c(N4CC(=O)NS4(=O)=O)c(F)c3c2)C1 [Compound 291, 5-{7-[1-(butane-1-sulfonyl)-2,5-dihydro-1H-pyrrol-3-yl]-1-fluoro-3-hydroxynaphthalen-2-yl}-1λ^6,2,5-thiadiazolidine-1,1,3-trione]"
4,10 to 100,"O=C1CN(c2c(O)cc3ccc(OCCF)cc3c2F)S(=O)(=O)N1 [Compound 198, 5-[1-fluoro-7-(2-fluoroethoxy)-3-hydroxynaphthalen-2-yl]-1λ^6,2,5-thiadiazolidine-1,1,3-trione]"
5,> 100,"O=C1CN(c2c(O)cc3ccc(NCCCC(F)(F)F)cc3c2F)S(=O)(=O)N1 [Compound 166, 5-{1-fluoro-3-hydroxy-7-[(4,4,4-trifluorobutyl)amino]naphthalen-2-yl}-1λ^6,2,5-thiadiazolidine-1,1,3-trione]"
6,1 to 10,"O=C1CN(c2c(O)cc3ccc(OCCNCCOC(F)(F)F)cc3c2F)S(=O)(=O)N1 [Compound 137, 5-[1-fluoro-3-hydroxy-7-(2-{[2-(trifluoromethoxy)ethyl]amino}ethoxy)naphthalen-2-yl]-1λ^6,2,5-thiadiazolidine-1,1,3-trione]"
7,< 1,"O=C1CN(c2c(O)cc3ccc(C4=CCN(S(=O)(=O)c5ccoc5)C4)cc3c2F)S(=O)(=O)N1 [Compound 312, 5-{1-fluoro-7-[1-(furan-3-sulfonyl)-2,5-dihydro-1H-pyrrol-3-yl]-3-hydroxynaphthalen-2-yl}-1λ^6,2,5-thiadiazolidine-1,1,3-trione]"
8,> 100,"O=C1CN(c2c(O)cc3ccc(C4CC4)cc3c2F)S(=O)(=O)N1 [Compound 236, 5-(7-cyclopropyl-1-fluoro-3-hydroxynaphthalen-2-yl)-1λ^6,2,5-thiadiazolidine-1,1,3-trione]"
9,< 1,"CC(C)CCS(=O)(=O)N1CC=C(c2ccc3cc(O)c(N4CC(=O)NS4(=O)=O)c(F)c3c2)C1 [Compound 313, 5-{1-fluoro-3-hydroxy-7-[1-(3-methylbutane-1-sulfonyl)-2,5-dihydro-1H-pyrrol-3-yl]naphthalen-2-yl}-1λ^6,2,5-thiadiazolidine-1,1,3-trione]"
10,1 to 10,"C[C@H](O)CCCc1ccc2cc(O)c(N3CC(=O)NS3(=O)=O)c(F)c2c1 [Compound 153, 5-{1-fluoro-3-hydroxy-7-[(4S)-4-hydroxypentyl]naphthalen-2-yl}-1λ^6,2,5-thiadiazolidine-1,1,3-trione]"
11,10 to 100,"O=C(COc1ccc2cc(O)c(N3CC(=O)NS3(=O)=O)c(F)c2c1)NCCC1CC1 [Compound 281, N-(2-cyclopropylethyl)-2-{[8-fluoro-6-hydroxy-7-(1,1,4-trioxo-1λ^6,2,5-thiadiazolidin-2-yl)naphthalen-2-yl]oxy}acetamide]"
12,10 to 100,"COCc1ccc2cc(O)c(N3CC(=O)NS3(=O)=O)c(F)c2c1 [Compound 229, 5-[1-fluoro-3-hydroxy-7-(methoxymethyl)naphthalen-2-yl]-1λ^6,2,5-thiadiazolidine-1,1,3-trione]"
13,> 100,"O=C1CN(c2c(O)cc3ccc(C4CCS(=O)(=O)CC4)cc3c2F)S(=O)(=O)N1 [Compound 248, 5-[7-(1,1-dioxo-1λ^6-thian-4-yl)-1-fluoro-3-hydroxynaphthalen-2-yl]-1λ^6,2,5-thiadiazolidine-1,1,3-trione]"
14,10 to 100,"COc1ccc2cc(O)c(N3CC(=O)NS3(=O)=O)c(F)c2c1F [Compound 205, 5-(1,8-difluoro-3-hydroxy-7-methoxynaphthalen-2-yl)-1λ^6,2,5-thiadiazolidine-1,1,3-trione]"
15,10 to 100,"COCCNCCOc1ccc2cc(O)c(N3CC(=O)NS3(=O)=O)c(F)c2c1 [Compound 138, 5-(1-fluoro-3-hydroxy-7-{2-[(2-methoxyethyl)amino]ethoxy}naphthalen-2-yl)-1λ^6,2,5-thiadiazolidine-1,1,3-trione]"
16,1 to 10,"Nc1ccccc1CS(=O)(=O)N1CC=C(c2ccc3cc(O)c(N4CC(=O)NS4(=O)=O)c(F)c3c2)C1 [Compound 195, 5-(7-{1-[(2-aminophenyl)methanesulfonyl]-2,5-dihydro-1H-pyrrol-3-yl}-1-fluoro-3-hydroxynaphthalen-2-yl)-1λ^6,2,5-thiadiazolidine-1,1,3-trione]"
17,< 1,"CC(C)CCNc1ccc2cc(O)c(N3CC(=O)NS3(=O)=O)c(F)c2c1 [Compound 200, 5-{1-fluoro-3-hydroxy-7-[(3-methylbutyl)amino]naphthalen-2-yl}-1λ^6,2,5-thiadiazolidine-1,1,3-trione]"
18,< 1,"CC(C)S(=O)(=O)N1CC=C(c2ccc3cc(O)c(N4CC(=O)NS4(=O)=O)c(F)c3c2)C1 [Compound 296, 5-{1-fluoro-3-hydroxy-7-[1-(propane-2-sulfonyl)-2,5-dihydro-1H-pyrrol-3-yl]naphthalen-2-yl}-1λ^6,2,5-thiadiazolidine-1,1,3-trione]"
19,10 to 100,"O=C1CN(c2c(O)cc3ccc(OCC(=O)N4CCCC4)cc3c2F)S(=O)(=O)N1 [Compound 283, 5-{1-fluoro-3-hydroxy-7-[2-oxo-2-(pyrrolidin-1-yl)ethoxy]naphthalen-2-yl}-1λ^6,2,5-thiadiazolidine-1,1,3-trione]"
20,10 to 100,"O=C1CN(c2c(O)cc3ccc(CCO)cc3c2F)S(=O)(=O)N1 [Compound 175, 5-[1-fluoro-3-hydroxy-7-(2-hydroxyethyl)naphthalen-2-yl]-1λ^6,2,5-thiadiazolidine-1,1,3-trione]"
21,> 100,"CS(=O)(=O)N1CCC(Nc2ccc3cc(O)c(N4CC(=O)NS4(=O)=O)c(F)c3c2)CC1 [Compound 305, 5-(1-fluoro-3-hydroxy-7-{[1-(methanesulfonyl)piperidin-4-yl]amino}naphthalen-2-yl)-1λ^6,2,5-thiadiazolidine-1,1,3-trione]"
22,> 100,"CC(C)CCNc1ccc2c(F)c(O)c(N3CC(=O)NS3(=O)=O)c(F)c2c1 [Compound 148, 5-{1,4-difluoro-3-hydroxy-7-[(3-methylbutyl)amino]naphthalen-2-yl}-1λ^6,2,5-thiadiazolidine-1,1,3-trione]"
23,> 100,"O=C1CN(c2c(O)cc3ccc(OCC(F)(F)F)cc3c2F)S(=O)(=O)N1 [Compound 197, 5-[1-fluoro-3-hydroxy-7-(2,2,2-trifluoroethoxy)naphthalen-2-yl]-1λ^6,2,5-thiadiazolidine-1,1,3-trione]"
24,10 to 100,"O=C1CN(c2c(O)cc3ccc(NCC4CC4)cc3c2F)S(=O)(=O)N1 [Compound 202, 5-{7-[(cyclopropylmethyl)amino]-1-fluoro-3-hydroxynaphthalen-2-yl}-1λ^6,2,5-thiadiazolidine-1,1,3-trione]"
25,> 100,"CNc1ccc2cc(O)c(N3CC(=O)NS3(=O)=O)c(F)c2c1 [Compound 107, 5-[1-fluoro-3-hydroxy-7-(methylamino)naphthalen-2-yl]-1λ^6,2,5-thiadiazolidine-1,1,3-trione]"
26,10 to 100,"O=C1CN(c2c(O)cc3ccc(CNCC4CC4)cc3c2F)S(=O)(=O)N1 [Compound 161, 5-(7-{[(cyclopropylmethyl)amino]methyl}-1-fluoro-3-hydroxynaphthalen-2-yl)-1λ^6,2,5-thiadiazolidine-1,1,3-trione]"
27,1 to 10,"[2H]c1c(O)c(N2C([2H])([2H])C(=O)NS2(=O)=O)c(F)c2cc(OC)ccc12 [Compound 106, 5-[1-fluoro-3-hydroxy-7-methoxy(4-^2H)naphthalen-2-yl](4,4-2H2)-1λ^6,2,5-thiadiazolidine-1,1,3-trione]"
28,1 to 10,"Cc1nn(C)cc1S(=O)(=O)N1CC=C(c2ccc3cc(O)c(N4CC(=O)NS4(=O)=O)c(F)c3c2)C1 [Compound 310, 5-{7-[1-(1,3-dimethyl-1H-pyrazole-4-sulfonyl)-2,5-dihydro-1H-pyrrol-3-yl]-1-fluoro-3-hydroxynaphthalen-2-yl}-1λ^6,2,5-thiadiazolidine-1,1,3-trione]"
29,> 100,"CC(C)Oc1ccc2cc(O)c(N3CC(=O)NS3(=O)=O)c(F)c2c1 [Compound 279, 5-{1-fluoro-3-hydroxy-7-[(propan-2-yl)oxy]naphthalen-2-yl}-1λ^6,2,5-thiadiazolidine-1,1,3-trione]"

row,SMILES,IC50 [nM]
1,"C[C@H](O)CCOc1ccc2cc(O)c(N3CC(=O)NS3(=O)=O)c(F)c2c1 [Compound 147, 5-{1-fluoro-3-hydroxy-7-[(3S)-3-hydroxybutoxy]naphthalen-2-yl}-1λ^6,2,5-thiadiazolidine-1,1,3-trione]",1 to 10
2,"CNCC(C)(C)CCOc1ccc2cc(O)c(N3CC(=O)NS3(=O)=O)c(F)c2c1 [Compound 163, 5-{7-[3,3-dimethyl-4-(methylamino)butoxy]-1-fluoro-3-hydroxynaphthalen-2-yl}-1λ^6,2,5-thiadiazolidine-1,1,3-trione]",> 100
3,"CC(C)(CN)CCOc1ccc2cc(O)c(N3CC(=O)NS3(=O)=O)c(F)c2c1 [Compound 176, 5-[7-(4-amino-3,3-dimethylbutoxy)-1-fluoro-3-hydroxynaphthalen-2-yl]-1λ^6,2,5-thiadiazolidine-1,1,3-trione]",1 to 10
